22 molecules from patent US20250214942A1, “INHIBITORS OF RECEPTOR INTERACTING PROTEIN KINASE I FOR THE TREATMENT OF DISEASE” (Board of Regents, The University of Texas System, priority 2019, published 2025) can be followed below.

The subject of this experiment is human monocytic cell line U937. Kind of experiment: Human U937 cellular necroptosis assay (TNFalpha + z-VAD-FMK, Cell Titer-Glo viability). It is filed as cell-based. The note with it: Homo sapiens, U-937, 22 h, U937 cells, 25 ng/mL human TNFalpha + 25 μM z-VAD-FMK, read-out: hU937 Avg IC50. The procedure, abridged:
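Readout is CellTiter-Glo 2.0 luminescence after 22 h at 37° C with compound, in cells triggered by human TNFalpha (25 ng/mL) and z-VAD-FMK (25 μM) in phenol red-free RPMI/10% FBS. Values are run-averaged IC50s from a four-parameter logistic curve.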
Take `CC1CC(c2cccc(F)c2)N(C(=O)C23CC(Cn4ncc5cc(C#N)ccc54)(C2)C3)C1` (stereo not shown) [Example 257, 1-((3-(2-(3-fluorophenyl)-4-methylpyrrolidine-1-carbonyl)-bicyclo[1.1.1]pentan-1-yl)-methyl)-1H-indazole-5-carbonitrile]: the IC50 (as a rule, the concentration at which inhibition is half-maximal) stood at 2080 nM.

`N#Cc1ccc(OCC23CC(C(=O)N4N=CCC4c4ccccc4)(C2)C3)nc1` (stereo not shown) [Example 276, 6-((3-(5-phenyl-4,5-dihydro-1H-pyrazole-1-carbonyl)-bicyclo[1.1.1]pentan-1-yl)-methoxy)nicotinonitrile]: the half-inhibitory concentration (IC50) was 76 nM.

For `O=C(N1N=CCC1c1cc(F)cc(F)c1)C12CC(COc3ncc(Cl)cn3)(C1)C2` (stereo not shown) [Example 322, (3-(((5-chloropyrimidin-2-yl)oxy)methyl)bicyclo[1.1.1]-pentan-1-yl)(5-(3,5-difluoro-phenyl)-4,5-dihydro-1H-pyrazol-1-yl)methanone], the IC50 is 60 nM.

On to `N#Cc1cnc(OCC23CC(C(=O)N4N=CCC4c4cnccn4)(C2)C3)cn1` (stereo not shown) [Example 274, 5-((3-(5-(pyrazin-2-yl)-4,5-dihydro-1H-pyrazole-1-carbonyl)bicyclo[1.1.1]pentan-1-yl)methoxy)pyrazine-2-carbonitrile], for which the IC50 came out at 61 nM.

As to `Cc1cc(F)c(C2CC=NN2C(=O)C23CC(COc4cnc(-c5cnn(C)c5)cn4)(C2)C3)cc1F` (stereo not shown) [Example 345, (5-(2,5-difluoro-4-methylphenyl)-4,5-dihydro-1H-pyrazol-1-yl)(3-(((5-(1-methyl-1H-pyrazol-4-yl)pyrazin-2-yl)oxy)methyl)bicyclo[1.1.1]pentan-1-yl)methanone], the IC50 is 61 nM.

`N#Cc1ccc2c(cnn2CC23CC(C(=O)N4N=CCC4c4ncccn4)(C2)C3)c1` (stereo not shown) [Example 259, 1-((3-(5-(pyrimidin-2-yl)-4,5-dihydro-1H-pyrazole-1-carbonyl)bicyclo[1.1.1]pentan-1-yl)methyl)-1H-indazole-5-carbonitrile]: the IC50 is 5450 nM.

`N#Cc1ccc2c(cnn2CC23CC(C(=O)N4N=CCC4c4cccc(Cl)c4Cl)(C2)C3)c1` (stereo not shown) [Example 245, 1-((3-(5-(2,3-dichlorophenyl)-4,5-dihydro-1H-pyrazole-1-carbonyl)bicyclo[1.1.1]pentan-1-yl)methyl)-1H-indazole-5-carbonitrile]: the IC50 came out at 43 nM.

As to `Cc1ccc(C2CC=NN2C(=O)C23CC(COc4cnc(C#N)cn4)(C2)C3)nc1` (stereo not shown) [Example 278, 5-((3-(5-(5-methylpyridin-2-yl)-4,5-dihydro-1H-pyrazole-1-carbonyl)bicyclo[1.1.1]-pentan-1-yl)methoxy)pyrazine-2-carbonitrile], the IC50 came to 97 nM.

Turning to `C[C@H](NC(=O)C12CC(COc3cnc(C#N)cn3)(C1)C2)c1cc(F)ccc1F` [Example 297, (S)-3-(((5-cyanopyrazin-2-yl)-oxy)methyl)-N-(1-(2,5-difluorophenyl)ethyl)bicyclo-[1.1.1]pentane-1-carboxamide], the half-maximal inhibitory concentration (IC50) is 6060 nM.

Turning to `Cc1ccc(C2CC=NN2C(=O)C23CC(Cn4ncc5cc(C#N)ccc54)(C2)C3)c(F)c1` (stereo not shown) [Example 238, 1-((3-(5-(2-fluoro-4-methyl-phenyl)-4,5-dihydro-1H-pyrazole-1-carbonyl)bicyclo-[1.1.1]pentan-1-yl)methyl)-1H-indazole-5-carbonitrile], the 50% inhibitory concentration (IC50) was determined as 8.4 nM.

For `CN(CC12CC(C(=O)N3N=CCC3c3cc(F)cc(F)c3)(C1)C2)c1cnc(C#N)cn1` (stereo not shown) [Example 206, 5-(((3-(5-(3,5-Difluorophenyl)-4,5-dihydro-1H-pyrazole-1-carbonyl)bicyclo[1.1.1]pentan-1-yl)methyl)(methyl)amino)pyrazine-2-carbonitrile], the IC50 was determined as 109 nM.

Consider `N#Cc1ccc(OCC23CC(C(=O)N4N=CCC4c4cc(F)c(Br)c(F)c4)(C2)C3)nc1` (stereo not shown) [Example 275, 6-((3-(5-(4-bromo-3,5-difluorophenyl)-4,5-dihydro-1H-pyrazole-1-carbonyl)-bicyclo[1.1.1]pentan-1-yl)-methoxy)nicotinonitrile], for which the concentration for half-maximal inhibition (IC50) was found to be 73 nM.

For the molecule `N#Cc1ccc2c(cnn2CC23CC(C(=O)N4N=CCC4c4ccc(F)c(F)c4)(C2)C3)c1` (stereo not shown) [Example 242, 1-((3-(5-(3,4-difluorophenyl)-4,5-dihydro-1H-pyrazole-1-carbonyl)bicyclo[1.1.1]pentan-1-yl)methyl)-1H-indazole-5-carbonitrile], the IC50 stood at 20 nM.

As for `N#Cc1cnc(NCC23CC(C(=O)N4N=CCC4c4cc(F)cc(F)c4)(C2)C3)cn1` (stereo not shown) [Example 205, 5-(((3-(5-(3,5-Difluorophenyl)-4,5-dihydro-1H-pyrazole-1-carbonyl)bicyclo[1.1.1]pentan-1-yl)methyl)amino)pyrazine-2-carbonitrile], the IC50 worked out at 436 nM.

As to `Cc1nc(CC#N)nn1CC12CC(C(=O)N3N=CCC3c3cc(F)cc(F)c3)(C1)C2` (stereo not shown) [Example 223, 2-(1-((3-(5-(3,5-difluoro-phenyl)-4,5-dihydro-1H-pyrazole-1-carbonyl)bicyclo-[1.1.1]pentan-1-yl)methyl)-5-methyl-1H-1,2,4-triazol-3-yl)acetonitrile], the IC50 worked out at 9740 nM.

For the molecule `Cc1ccc(C2CC=NN2C(=O)C23CC(COc4ccc(C#N)cn4)(C2)C3)cc1` (stereo not shown) [Example 273, 6-((3-(5-(p-tolyl)-4,5-dihydro-1H-pyrazole-1-carbonyl)-bicyclo[1.1.1]pentan-1-yl)-methoxy)nicotinonitrile], the IC50 was 30 nM.

For the molecule `N#Cc1nc(C2CC2)nn1CC12CC(C(=O)N3N=CCC3c3cc(F)cc(F)c3)(C1)C2` (stereo not shown) [Example 217, 3-cyclopropyl-1-((3-(5-(3,5-difluorophenyl)-4,5-dihydro-1H-pyrazole-1-carbonyl)-bicyclo[1.1.1]pentan-1-yl)-methyl)-1H-1,2,4-triazole-5-carbonitrile], the IC50 was determined as 99 nM.

With `Cc1cnc(C2CC=NN2C(=O)C23CC(Cn4ncc5nc(C#N)ccc54)(C2)C3)cn1` (stereo not shown) [Example 235, 1-((3-(5-(5-methylpyrazin-2-yl)-4,5-dihydro-1H-pyrazole-1-carbonyl)bicyclo[1.1.1]-pentan-1-yl)methyl)-1H-pyrazolo[4,3-b]pyridine-5-carbonitrile], the IC50 is 339 nM.

`Cc1csc(C2CC=NN2C(=O)C23CC(Cn4ncc5cc(C#N)ccc54)(C2)C3)n1` (stereo not shown) [Example 250, 1-((3-(5-(4-methylthiazol-2-yl)-4,5-dihydro-1H-pyrazole-1-carbonyl)bicyclo[1.1.1]-pentan-1-yl)methyl)-1H-indazole-5-carbonitrile]: the half-maximal inhibitory concentration (IC50) stood at 267 nM.

Take `N#Cc1cnc(OCC23CC(C(=O)N4N=CCC4c4cn5ccccc5n4)(C2)C3)cn1` (stereo not shown) [Example 317, 5-((3-(5-(imidazo[1,2-a]-pyridin-2-yl)-4,5-dihydro-1H-pyrazole-1-carbonyl)bicyclo-[1.1.1]pentan-1-yl)methoxy)-pyrazine-2-carbonitrile]: the IC50 is 8510 nM.

Consider `N#Cc1ccc(OCC23CC(C(=O)N4N=CCC4c4cnccn4)(C2)C3)nc1` (stereo not shown) [Example 280, 6-((3-(5-(pyrazin-2-yl)-4,5-dihydro-1H-pyrazole-1-carbonyl)bicyclo[1.1.1]pentan-1-yl)methoxy)nicotinonitrile], for which the IC50 turned out to be 106 nM.

Regarding `Cc1ccc(C2CC=NN2C(=O)C23CC(COc4cnc(C#N)cn4)(C2)C3)c(F)c1` (stereo not shown) [Example 267, 5-((3-(5-(2-fluoro-4-methyl-phenyl)-4,5-dihydro-1H-pyrazole-1-carbonyl)bicyclo-[1.1.1]pentan-1-yl)methoxy)-pyrazine-2-carbonitrile], the IC50 turned out to be 3.8 nM.
